From patent publication US20250230140A1 (Viva Star Biosciences (Suzhou) Co., Ltd., priority 2021, published 2025)

Biological target: T1, LPA1 (Homo sapiens, UniProt Q92633)
T1 construct: ProLink (β-galactosidase enzyme-donor fragment); host or cells: CHO-K1 (PathHunter EDG2 β-Arrestin cell line)
Assay: LPA1 calcium flux assay (LPA1 functional antagonist assay)
Assay type: cell-based
Settings: PathHunter CHO-K1 EDG2 β-Arrestin cells, calcium indicator dye, stimulated with EC80 concentration of LPA, FLIPR
Description: The effectiveness of compounds of the present invention as LPA1 inhibitors can be determined in an LPA1 functional antagonist assay as follows.
PathHunter® CHO-K1 EDG2 β-Arrestin Cell Line (Eurofins DiscoverX Corporation, Cat #93-0644C2) were plated overnight (11,500 cells/well) in poly-D-lysine coated 384-well microplates (Corning, Cat #356697) in AssayComplete™ Cell Plating 35 Reagent (Eurofins DiscoverX Corporation, Cat #93-0563R35). Following overnight culture, cells were loaded with calcium indicator dye from the HitHunter Calcium No WashPLUS Assay kit (Eurofins DiscoverX Corporation, Cat #93-0091) for 45 minutes at 37° C. Test compounds solubilized in DMSO (Sigma, Cat #276855) on 384-well polypropylene microplates (Greiner bio-one, Cat #781280) were then diluted to intermediate concentration with assay buffer [1×HBSS calcium/magnesium (Corning, Cat #21-023-CM) and 20 mM HEPES (Corning, Cat #25-060-Cl)] before addition to cells by Agilent Velocity 11 with a final concentration of 0.4% DMSO. After compound addition, assay plates were equilibrated to room temperature for 30 minutes. Cells were then stimulated by addition of EC80 concentration of LPA (Cat #, 10010093) in assay buffer containing [1×HBSS calcium/magnesium (Corning, Cat #21-023-CM), 20 mM HEPES (Corning, Cat #25-060-Cl), and 0.1% BSA (Sigma, Cat #A8806)] using Molecular Devices FLIPR Tetra PLUS®. IC50 values were determined by Chemical and Biological Information System from ChemInnovation Software, Inc.
The compounds of this invention were tested for their activity to inhibit LPA1 as determined in an LPA1 functional antagonist assay as described herein.

T1 sequence (Q92633 whole entry, the tested form may be a part): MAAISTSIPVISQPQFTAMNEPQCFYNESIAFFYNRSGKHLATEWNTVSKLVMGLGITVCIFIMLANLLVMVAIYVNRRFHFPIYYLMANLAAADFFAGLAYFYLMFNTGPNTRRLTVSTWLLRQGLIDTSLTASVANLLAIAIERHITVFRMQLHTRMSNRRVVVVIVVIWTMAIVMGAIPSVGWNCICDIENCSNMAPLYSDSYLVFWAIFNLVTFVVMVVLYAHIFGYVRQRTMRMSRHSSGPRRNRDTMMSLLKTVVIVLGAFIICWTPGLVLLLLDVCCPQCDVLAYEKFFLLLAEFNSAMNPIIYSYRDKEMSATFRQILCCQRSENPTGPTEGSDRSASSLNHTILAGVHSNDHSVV

IC50 [µM] | Structure (SMILES)
< 0.1 | CCc1nc(-c2nnn(C)c2COc2nccc(C3CCC3)n2)ccc1[C@H]1CCC[C@@H](CC(=O)O)O1 (relative stereo) [Example 21, 2-(rel-(2S,6R)-6-(6-(5-(((4-cyclobutylpyrimidin-2-yl)oxy)methyl)-1-methyl-1H-1,2,3-triazol-4-yl)-2-ethylpyridin-3-yl)tetrahydro-2H-pyran-2-yl)acetic acid]
0.5 to 5 | CCCc1ccc(=O)n(Cc2c(-c3ccc(N4CC[C@@H](C(CC)C(=O)O)C4)c(CC)n3)nnn2C)c1 (single isomer, unassigned) [Example 17, (S) or (R)-2-((S)-1-(2-ethyl-6-(1-methyl-5-((2-oxo-5-propylpyridin-1(2H)-yl)methyl)-1H-1,2,3-triazol-4-yl)pyridin-3-yl)pyrrolidin-3-yl)butanoic acid]
5 to 10000 | CCCc1ccc(=O)n(Cc2c(-c3ccc(N4CC[C@@H](C(CC)C(=O)O)C4)c(CC)n3)nnn2C)c1 (single isomer, unassigned) [Example 18, (R) or (S)-2-((S)-1-(2-ethyl-6-(1-methyl-5-((2-oxo-5-propylpyridin-1(2H)-yl)methyl)-1H-1,2,3-triazol-4-yl)pyridin-3-yl)pyrrolidin-3-yl)butanoic acid]
5 to 10000 | CCCN(C)C(=O)OCc1c(-c2ccc(N3CC[C@@H](C(CC)C(=O)O)C3)c(CC)n2)nnn1C (single isomer, unassigned) [Example 19, (S) or (R)-2-((S)-1-(2-ethyl-6-(1-methyl-5-(((methyl(propyl)carbamoyl)oxy)methyl)-1H-1,2,3-triazol-4-yl)pyridin-3-yl)pyrrolidin-3-yl)butanoic acid]
0.5 to 5 | CCCN(C)C(=O)OCc1c(-c2ccc(N3CC[C@@H](C(CC)C(=O)O)C3)c(CC)n2)nnn1C (single isomer, unassigned) [Example 20, (R) or (S)-2-((S)-1-(2-ethyl-6-(1-methyl-5-(((methyl(propyl)carbamoyl)oxy)methyl)-1H-1,2,3-triazol-4-yl)pyridin-3-yl)pyrrolidin-3-yl)butanoic acid]
< 0.1 | CCc1nc(-c2nnn(C)c2COc2nccc(C3CCC3)n2)ccc1[C@@H]1CCC[C@@H](CC(=O)O)O1 (single isomer, unassigned) [Example 22, 2-((2S,6S) or (2R,6R)-6-(6-(5-(((4-cyclobutylpyrimidin-2-yl)oxy)methyl)-1-methyl-1H-1,2,3-triazol-4-yl)-2-ethylpyridin-3-yl)tetrahydro-2H-pyran-2-yl)acetic acid]
0.1 to 0.5 | CCc1nc(-c2nnn(C)c2COc2nccc(C3CCC3)n2)ccc1[C@H]1CCC[C@H](CC(=O)O)O1 (single isomer, unassigned) [Example 23, 2-((2R,6R) or (2S,6S)-6-(6-(5-(((4-cyclobutylpyrimidin-2-yl)oxy)methyl)-1-methyl-1H-1,2,3-triazol-4-yl)-2-ethylpyridin-3-yl)tetrahydro-2H-pyran-2-yl)acetic acid]
0.5 to 5 | CCCc1ccc(=O)n(Cc2c(-c3ccc([C@@H]4CCC[C@@H](CC(=O)O)O4)c(CC)n3)nnn2C)c1 (single isomer, unassigned) [Example 24, 2-((2S,6S) or (2R,6R)-6-(2-ethyl-6-(1-methyl-5-((2-oxo-5-propylpyridin-1(2H)-yl)methyl)-1H-1,2,3-triazol-4-yl)pyridin-3-yl)tetrahydro-2H-pyran-2-yl)acetic acid]
0.5 to 5 | CCCN(C)C(=O)OCc1c(-c2ccc([C@@H]3CCC[C@@H](CC(=O)O)O3)c(CC)n2)nnn1C (single isomer, unassigned) [Example 25, 2-((2S,6S) or (2R,6R)-6-(2-ethyl-6-(1-methyl-5-(((methyl(propyl)carbamoyl)oxy)methyl)-1H-1,2,3-triazol-4-yl)pyridin-3-yl)tetrahydro-2H-pyran-2-yl)acetic acid]
< 0.1 | CCc1nc(-c2nnn(C)c2COc2nccc(C3CCC3)n2)ccc1C1CCOC(CC(=O)O)C1 (single isomer, unassigned) [Example 34, 2-(4-(6-(5-(((4-cyclobutylpyrimidin-2-yl)oxy)methyl)-1-methyl-1H-1,2,3-triazol-4-yl)-2-ethylpyridin-3-yl)tetrahydro-2H-223,423-pyran-2-yl)acetic acid]
< 0.1 | CCc1nc(-c2nnn(C)c2COc2nccc(C3CCC3)n2)ccc1C1CCOC(CC(=O)O)C1 (single isomer, unassigned) [Example 35, 2-(4-(6-(5-(((4-cyclobutylpyrimidin-2-yl)oxy)methyl)-1-methyl-1H-1,2,3-triazol-4-yl)-2-ethylpyridin-3-yl)tetrahydro-2H-223,423-pyran-2-yl)acetic acid]
< 0.1 | CCc1nc(-c2nnn(C)c2COc2nccc(C3CCC3)n2)ccc1C1CCOC(CC(=O)O)C1 (single isomer, unassigned) [Example 36, 2-(4-(6-(5-(((4-cyclobutylpyrimidin-2-yl)oxy)methyl)-1-methyl-1H-1,2,3-triazol-4-yl)-2-ethylpyridin-3-yl)tetrahydro-2H-223,423-pyran-2-yl)acetic acid]
< 0.1 | CCc1nc(-c2nnn(C)c2COc2nccc(C3CCC3)n2)ccc1C1CCOC(CC(=O)O)C1 (single isomer, unassigned) [Example 37, 2-(4-(6-(5-(((4-cyclobutylpyrimidin-2-yl)oxy)methyl)-1-methyl-1H-1,2,3-triazol-4-yl)-2-ethylpyridin-3-yl)tetrahydro-2H-2λ^3,4λ^3-pyran-2-yl)acetic acid]
5 to 10000 | CCCc1ccc(=O)n(Cc2c(-c3ccc(C4CN(CC(=O)O)CC(F)(F)C4)c(C)n3)nnn2C)c1 (single isomer, unassigned) [Example 40, (R) or (S)-2-(3,3-difluoro-5-(2-methyl-6-(1-methyl-5-((2-oxo-5-propylpyridin-1(2H)-yl)methyl)-1H-1,2,3-triazol-4-yl)pyridin-3-yl)piperidin-1-yl)acetic acid]
0.1 to 0.5 | CCCc1ccc(=O)n(Cc2c(-c3ccc(C4CN(CC(=O)O)CC(F)(F)C4)c(C)n3)nnn2C)c1 (single isomer, unassigned) [Example 41, (S) or (R)-2-(3,3-difluoro-5-(2-methyl-6-(1-methyl-5-((2-oxo-5-propylpyridin-1(2H)-yl)methyl)-1H-1,2,3-triazol-4-yl)pyridin-3-yl)piperidin-1-yl)acetic acid]
< 0.1 | CCc1nc(-c2nnn(C)c2COc2nccc(C3CCC3)n2)ccc1N1CC[C@@H](CC(=O)O)C1 [Example 1, 2-[(3S)-1-[6-(5-{[(4-cyclobutylpyrimidin-2-yl)oxy]methyl}-1-methyl-1H-1,2,3-triazol-4-yl)-2-ethylpyridin-3-yl]pyrrolidin-3-yl]acetic acid]
0.5 to 5 | CCCc1ccc(=O)n(Cc2c(-c3ccc(N4CCC(CC(=O)O)C4)c(C)n3)nnn2C)c1 (stereo not drawn) [Example 2, 2-(1-(2-methyl-6-(1-methyl-5-((2-oxo-5-propylpyridin-1(2H)-yl)methyl)-1H-1,2,3-triazol-4-yl)pyridin-3-yl)pyrrolidin-3-yl)acetic acid]
< 0.1 | Cc1nc(-c2nnn(C)c2COc2nccc(C3CCC3)n2)ccc1N1CCC(CC(=O)O)C1 (stereo not drawn) [Example 3, 2-(1-(6-(5-(((4-cyclobutylpyrimidin-2-yl)oxy)methyl)-1-methyl-1H-1,2,3-triazol-4-yl)-2-methylpyridin-3-yl)pyrrolidin-3-yl)acetic acid]
0.1 to 0.5 | CCc1nc(-c2nnn(C)c2COc2nccc(C3CCC3)n2)ccc1N1CC[C@H](CC(=O)O)C1 [Example 4, (R)-2-(1-(6-(5-(((4-cyclobutylpyrimidin-2-yl)oxy)methyl)-1-methyl-1H-1,2,3-triazol-4-yl)-2-ethylpyridin-3-yl)pyrrolidin-3-yl)acetic acid]
0.1 to 0.5 | Cc1nc(-c2nnn(C)c2COc2nccc(C3CCC3)n2)ccc1N1CC[C@H](CC(=O)O)C1 [Example 5, (R)-2-(1-(6-(5-(((4-cyclobutylpyrimidin-2-yl)oxy)methyl)-1-methyl-1H-1,2,3-triazol-4-yl)-2-methylpyridin-3-yl)pyrrolidin-3-yl)acetic acid]
< 0.1 | Cc1nc(-c2nnn(C)c2COc2nccc(C3CCC3)n2)ccc1N1CC[C@@H](CC(=O)O)C1 [Example 6, (S)-2-(1-(6-(5-(((4-cyclobutylpyrimidin-2-yl)oxy)methyl)-1-methyl-1H-1,2,3-triazol-4-yl)-2-methylpyridin-3-yl)pyrrolidin-3-yl)acetic acid]
0.1 to 0.5 | Cc1nc(-c2nnn(C)c2COc2cc(-n3cccn3)ncn2)ccc1N1CC[C@H](CC(=O)O)C1 [Example 7, (R)-2-(1-(6-(5-(((6-(1H-pyrazol-1-yl)pyrimidin-4-yl)oxy)methyl)-1-methyl-1H-1,2,3-triazol-4-yl)-2-methylpyridin-3-yl)pyrrolidin-3-yl)acetic acid]
< 0.1 | CCc1nc(-c2nnn(C)c2COc2nccc(C3CCC3)n2)ccc1N1CC[C@@H]([C@@H](C)C(=O)O)C1 [Example 8]
< 0.1 | CCc1nc(-c2nnn(C)c2COc2nccc(C3CCC3)n2)ccc1N1CC[C@H]([C@@H](C)C(=O)O)C1 [Example 9]
